From PubChem BioAssay AID248 (DTP/NCI, 2004) come the findings set out here.

Toxic doses and inconclusive results are not listed.

The subject of the assay is L1210 leukemia ip in BDF1 mice, survival T/C. In words: NCI In Vivo Anticancer Drug Screen. Data for tumor model L1210 Leukemia (intraperitoneal) in B6D2F1 (BDF1) mice. The note with it: endpoint: mean survival time, higher = longer survival. Summed up:
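Survival endpoint. Drug-treated group vs vehicle group, expressed as T divided by C. Tumor passaged by transplantation.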

Where [1] appears, read: dose: 100.0 mg/kg/injection, schedule: Q01DX001 (ip), vehicle: saline.
[2] abbreviates: dose: 100.0 mg/kg/injection, schedule: Q01DX009 (ip), vehicle: Klucel (hydroxypropylcellulose) (HPC).
Where [3] appears, read: dose: 100.0 mg/kg/injection, schedule: Q04DX003 (ip), vehicle: Klucel (hydroxypropylcellulose) (HPC).
The mark [4] stands for this setting: dose: 200.0 mg/kg/injection, schedule: Q01DX009 (ip), vehicle: Klucel (hydroxypropylcellulose) (HPC).
The mark [5] stands for this setting: dose: 200.0 mg/kg/injection, schedule: Q04DX003 (ip), vehicle: Klucel (hydroxypropylcellulose) (HPC).
Setting [6] is: dose: 400.0 mg/kg/injection, schedule: Q01DX009 (ip), vehicle: Klucel (hydroxypropylcellulose) (HPC).
[7] abbreviates: dose: 400.0 mg/kg/injection, schedule: Q04DX003 (ip), vehicle: Klucel (hydroxypropylcellulose) (HPC).
[8] abbreviates: dose: 100.0 mg/kg/injection, schedule: Q01DX001 (ip), vehicle: Klucel (hydroxypropylcellulose) (HPC).
[9] abbreviates: dose: 200.0 mg/kg/injection, schedule: Q01DX001 (ip), vehicle: Klucel (hydroxypropylcellulose) (HPC).
[10] abbreviates: dose: 400.0 mg/kg/injection, schedule: Q01DX001 (ip), vehicle: Klucel (hydroxypropylcellulose) (HPC).
Setting [11] is: dose: 100.0 mg/kg/injection, schedule: Q04DX003 (ip), vehicle: saline.
The mark [12] stands for this setting: dose: 200.0 mg/kg/injection, schedule: Q04DX003 (ip), vehicle: saline.
[13] abbreviates: dose: 400.0 mg/kg/injection, schedule: Q04DX003 (ip), vehicle: saline.
Setting [14] is: dose: 100.0 mg/kg/injection, schedule: Q01DX009 (ip), vehicle: saline.
[15] abbreviates: dose: 200.0 mg/kg/injection, schedule: Q01DX001 (ip), vehicle: saline.
[16] abbreviates: dose: 200.0 mg/kg/injection, schedule: Q01DX009 (ip), vehicle: saline.
[17] abbreviates: dose: 400.0 mg/kg/injection, schedule: Q01DX001 (ip), vehicle: saline.
[18] abbreviates: dose: 400.0 mg/kg/injection, schedule: Q01DX009 (ip), vehicle: saline.
Setting [19] is: dose: 50.0 mg/kg/injection, schedule: Q01DX001 (ip), vehicle: carboxymethylcellulose (CMC).
Where [20] appears, read: dose: 100.0 mg/kg/injection, schedule: Q01DX001 (ip), vehicle: carboxymethylcellulose (CMC).
The mark [21] stands for this setting: dose: 200.0 mg/kg/injection, schedule: Q01DX001 (ip), vehicle: carboxymethylcellulose (CMC).
Setting [22] is: dose: 400.0 mg/kg/injection, schedule: Q01DX001 (ip), vehicle: carboxymethylcellulose (CMC).

Turning to `Cc1ccccc1NC1=C(Cl)C(=O)c2ccccc2C1=O`, the T/C was 93 % of control (dose: 25.0 mg/kg/injection, schedule: Q04DX003 (ip), vehicle: saline); 93 % of control (dose: 50.0 mg/kg/injection, schedule: Q04DX003 (ip), vehicle: saline); 93 % of control under setting [1].
With `CCCCCOc1ccc(C(=O)CC(=O)OCC)cc1`, the T/C is, setting by setting: under setting [2], 98 % of control; under setting [3], 93 % of control; under setting [4], 104 % of control; under setting [5], 95 % of control; under setting [6], 93 % of control; under setting [7], 93 % of control.
Take `CCN(C(=S)c1ccccc1)c1ccc(C(=O)OC)cc1`: the T/C by setting is: (dose: 75.0 mg/kg/injection, schedule: Q04DX003 (ip), vehicle: saline) 100 % of control; under setting [8], 100 % of control; (dose: 150.0 mg/kg/injection, schedule: Q04DX003 (ip), vehicle: saline) 102 % of control; under setting [9], 104 % of control; (dose: 300.0 mg/kg/injection, schedule: Q04DX003 (ip), vehicle: saline) 97 % of control; under setting [10], 100 % of control.
Take `c1ccc(CC(Cc2ccccc2)c2nc3ccccc3s2)cc1`: the T/C was 98 % of control (dose: 75.0 mg/kg/injection, schedule: Q01DX009 (ip), vehicle: saline); 98 % of control under setting [11]; 98 % of control (dose: 150.0 mg/kg/injection, schedule: Q01DX009 (ip), vehicle: saline); 92 % of control under setting [12]; 95 % of control (dose: 300.0 mg/kg/injection, schedule: Q01DX009 (ip), vehicle: saline); 92 % of control under setting [13].
For the compound `NC1=Nc2ccccc2CS1`, the T/C by setting is: (dose: 18.8 mg/kg/injection, schedule: Q04DX003 (ip), vehicle: saline) 95 % of control; (dose: 37.5 mg/kg/injection, schedule: Q04DX003 (ip), vehicle: saline) 101 % of control.
As for `O=C(O)CCc1ccc(-c2ccccc2)[nH]1`, the T/C runs as follows: under setting [8], 106 % of control; under setting [9], 104 % of control; under setting [10], 106 % of control.
With `O=S(=O)(CCCCCl)Cc1ccccc1`, the T/C by setting is: under setting [1], 101 % of control; under setting [14], 110 % of control; under setting [11], 104 % of control; under setting [15], 96 % of control; under setting [16], 94 % of control; under setting [12], 104 % of control. The T/C is, setting by setting: under setting [17], 93 % of control; under setting [18], 103 % of control; under setting [13], 93 % of control.
Regarding `Cc1ccc(NCc2ccccc2)cc1`, the T/C (dose: 100.0 mg/kg/injection, schedule: Q04DX003 (ip), vehicle: other) is 112 % of control and the T/C (dose: 200.0 mg/kg/injection, schedule: Q04DX003 (ip), vehicle: other) is 92 % of control.
With `COc1ccc(CN2CCCN(Cc3ccc(OC)cc3OC)C2c2ccc(N(CCCl)CCCl)cc2C)c(OC)c1`, the T/C is 106 % of control under setting [19], 104 % of control under setting [20], 106 % of control under setting [21] and 112 % of control under setting [22].
For `COc1ccc(OC)c(N)c1`, the T/C was 88 % of control (dose: 25.0 mg/kg/injection, schedule: Q01DX009 (ip), vehicle: Klucel (hydroxypropylcellulose) (HPC)); 93 % of control (dose: 50.0 mg/kg/injection, schedule: Q01DX009 (ip), vehicle: Klucel (hydroxypropylcellulose) (HPC)); 93 % of control under setting [2].
Turning to `O=C(Nc1ccc(C2=NCCN2)cc1)c1cncc(C(=O)Nc2ccc(C3=NCCN3)cc2)n1`, the T/C is, setting by setting: (dose: 31.0 mg/kg/injection, schedule: Q01DX Z (ip), vehicle: carboxymethylcellulose (CMC)) 109 % of control; (dose: 62.5 mg/kg/injection, schedule: Q01DX Z (oral), vehicle: water) 94 % of control; (dose: 125.0 mg/kg/injection, schedule: Q01DX Z (ip), vehicle: carboxymethylcellulose (CMC)) 168 % of control; (dose: 125.0 mg/kg/injection, schedule: Q01DX Z (oral), vehicle: water) 100 % of control; (dose: 250.0 mg/kg/injection, schedule: Q01DX Z (ip), vehicle: carboxymethylcellulose (CMC)) 227 % of control; (dose: 250.0 mg/kg/injection, schedule: Q01DX Z (oral), vehicle: water) 97 % of control. For the same compound, the T/C (dose: 500.0 mg/kg/injection, schedule: Q01DX Z (oral), vehicle: water) was 97 % of control.
Regarding `O=C(Cc1ccccc1)Nc1cccc(Cl)c1`, the T/C under setting [2] is 100 % of control, the T/C under setting [4] is 86 % of control and the T/C under setting [6] was 95 % of control.
For the compound `Cc1ccc(NNC(=O)C(O)C(O)C(O)C(O)CO)cc1` (stereo not drawn), the T/C is 92 % of control (dose: 50.0 mg/kg/injection, schedule: Q01DX009 (ip), vehicle: saline); 96 % of control under setting [14]; 100 % of control under setting [16].
Turning to `Clc1ccc(Nc2ncnc3ncn(Cc4ccccc4)c23)cc1`, the T/C runs as follows: (dose: 100.0 mg/kg/injection, schedule: Q01DX001 (ip), vehicle: other) 89 % of control; (dose: 200.0 mg/kg/injection, schedule: Q01DX001 (ip), vehicle: other) 93 % of control; (dose: 400.0 mg/kg/injection, schedule: Q01DX001 (ip), vehicle: other) 101 % of control.
As for `O=C(CCl)OC1CCCCC1`, the T/C is 105 % of control (dose: 100.0 mg/kg/injection, schedule: Q01DX009 (ip), vehicle: saline with Tween-80) and 97 % of control (dose: 200.0 mg/kg/injection, schedule: Q01DX009 (ip), vehicle: saline with Tween-80).
Turning to `C[N+](C)(C)CCS(=O)(=O)[O-]`, the T/C is 90 % of control under setting [14], 95 % of control under setting [16] and 95 % of control under setting [18].
As for `O=C(O)/C=C/c1ccccc1Cl`, the T/C was 94 % of control (dose: 25.0 mg/kg/injection, schedule: Q04DX003 (ip), vehicle: Klucel (hydroxypropylcellulose) (HPC)); 103 % of control (dose: 50.0 mg/kg/injection, schedule: Q04DX003 (ip), vehicle: Klucel (hydroxypropylcellulose) (HPC)); 96 % of control under setting [3].
As for `CC(=O)CC(=O)Nc1ccc(Cc2ccccc2)cc1`, the T/C reads like this: under setting [1], 93 % of control; under setting [15], 94 % of control; under setting [17], 109 % of control.
As to `CCOC(=O)C(C)C(O)(c1ccccc1)c1ccccc1` (stereo not drawn), the T/C reads like this: under setting [2], 90 % of control; under setting [4], 97 % of control; under setting [6], 106 % of control.
Turning to `Nc1cc(Cl)ccc1N1CCCC1`, the T/C reads like this: under setting [11], 94 % of control; under setting [12], 90 % of control.
Turning to `CCOC(=O)/C(C#N)=C\C=C\c1ccccc1`, the T/C by setting is: under setting [2], 92 % of control; under setting [3], 96 % of control; under setting [4], 98 % of control; under setting [5], 98 % of control; under setting [7], 102 % of control.
In the case of `CC(=O)Nc1ccc(F)c(F)c1`, the T/C was 98 % of control (dose: 100.0 mg/kg/injection, schedule: Q04DX002 (ip), vehicle: Klucel (hydroxypropylcellulose) (HPC)); 113 % of control (dose: 200.0 mg/kg/injection, schedule: Q04DX002 (ip), vehicle: Klucel (hydroxypropylcellulose) (HPC)); 121 % of control (dose: 400.0 mg/kg/injection, schedule: Q04DX002 (ip), vehicle: Klucel (hydroxypropylcellulose) (HPC)).
In the case of `COC1=C(NCc2ccco2)C(=O)C(OC)=C(NCc2ccco2)C1=O`, the T/C under setting [19] was 96 % of control, the T/C under setting [20] is 91 % of control, the T/C under setting [21] is 86 % of control and the T/C under setting [22] is 96 % of control.
